Measurements published in patent US20240082235A1, “METHOD FOR TREATING OR INHIBITING CYTOMEGALOVIRUS INFECTION USING SMALL MOLECULES TARGETING PROTEIN PHOSPHATASE 1” (HOWARD UNIVERSITY, priority 2020, published 2024).

Key:
PP1-cdNIPP1 interaction = molecular target: T1, PP1-cdNIPP1 interaction (Homo sapiens, UniProt P62136); test: Split NanoBit protein:protein interaction assay, WT PP1 with WT cdNIPP1; format: binding; conditions: FIG. 4B
T1 construct: NanoBiT large bit (LgBiT)

[1] = molecular target: T2, PP1-cdNIPP1 RATA interaction (Homo sapiens, UniProt P62136); test: Split NanoBit protein:protein interaction assay, WT PP1 with RVxF-mutant cdNIPP1; format: binding; conditions: FIG. 4B, cdNIPP1 with RVxF mutation
T2 construct: NanoBiT large bit (LgBiT)
T2 sequence (P62136 whole entry): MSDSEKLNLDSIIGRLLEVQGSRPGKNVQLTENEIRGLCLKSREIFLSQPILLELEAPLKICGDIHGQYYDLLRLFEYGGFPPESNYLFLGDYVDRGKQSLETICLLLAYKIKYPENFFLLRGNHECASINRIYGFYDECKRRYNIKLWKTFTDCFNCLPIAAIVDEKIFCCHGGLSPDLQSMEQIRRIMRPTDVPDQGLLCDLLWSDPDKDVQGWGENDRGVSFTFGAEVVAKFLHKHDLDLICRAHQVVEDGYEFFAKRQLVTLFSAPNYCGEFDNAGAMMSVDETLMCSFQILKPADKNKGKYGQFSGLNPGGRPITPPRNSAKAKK

CMV = test: Plaque assay of human foreskin fibroblasts infected with CMV; format: cell-based, human cytomegalovirus; conditions: percentage compared to untreated control, FIG. 5A
[2] = test system: CMV immediate early proteins; test: Expression of CMV immediate early proteins in infected cells; format: cell-based, human cytomegalovirus; conditions: FIG. 5B
[3] = test system: CMV IE1, IE2 and UL32 mRNA; test: Viral mRNA expression by RT-qPCR in infected human foreskin fibroblasts; format: cell-based, human cytomegalovirus; conditions: fold-change compared to infected cells treated with vehicle only, FIG. 5C
PP1 = PP1 (Homo sapiens, UniProt P62136); conditions: SPR; Lin et al. 2017; read-out: KD of binding to PP1; cited from earlier work
Chain of PP1 (P62136 whole entry): as above

[4] = molecular target: PP1 with peptides containing an RVxF sequence (Homo sapiens, UniProt P62136); conditions: in vitro; Ammosova et al. 2012, 2014; cited from earlier work
Chain of PP1 with peptides containing an RVxF sequence (P62136 whole entry): as above

T1 sequence (P62136 whole entry): as above

**Q.** For `CCNC(=O)NC(=O)C(C)OC(=O)c1c2c(nc3ccccc13)/C(=C/c1ccc(OC)c(OC)c1)CC2` (stereo not shown) [1E7-03], which “Effect on PP1-cdNIPP1 interaction” value (PP1-cdNIPP1 interaction) is on record?
**A.** inhibited the PP1-cdNIPP1 interaction

**Q.** And the “Effect on PP1-cdNIPP1 RATA interaction” value [1]?
**A.** did not have an effect

**Q.** And the “Inhibition of CMV replication” value (CMV)?
**A.** concentration-dependent inhibition of CMV replication

**Q.** And the “Expression of CMV immediate early proteins” value [2]?
**A.** reduced

**Q.** What about the “Viral mRNA expression (IE1, IE2, UL32)” value [3] of the same molecule?
**A.** no effect on viral transcription

**Q.** What about the Kd (PP1) of the same molecule?
**A.** 6.2 µM

**Q.** And the “Interaction of PP1 with peptides containing an RVxF sequence” value [4]?
**A.** disrupted the interaction of PP1 with peptides containing an RVxF sequence
